Experimental data from article PMC8460821, “Bio-oriented synthesis of new sulphadiazine derivatives for urease inhibition and their pharmacokinetic analysis” (Scientific Reports, 2021).
Where two headings read alike, the source gives them in different places.

What was measured:
Jack bean urease = Jack bean urease (Canavalia ensiformis, UniProt P07374); assay: biochemical
Procedure: All the synthesized derivatives were subjected to anti-urease activity. In preliminary screening, all compounds were evaluated at 1 mM concentrations, and percentage inhibition was used as an indicator of activity. IC50 values were calculated for the scaffolds having percentage inhibition higher than 50%.
Indophenol method was used to perform the urease inhibition. 10 µL of enzyme, 40 µL buffer, 10 µL of assay moiety, 40-µL each of phenol-reagents, and alkali reagent were present in the assay mixture. Firstly, incubation of assay compounds and enzyme was done in assay buffer at 37 °C for 30 min. Then, alkaline reagents and 40 µL of phenol were mixed to quench the mixture. 96 well plates were used in enzyme assay and for reading of absorbance at 625 nm a microplate reader was helpful. The experiment was done in triplicate and PRISM 4.0 was used to get IC50, positive control was thiourea.

Jack bean urease, sequence (P07374 whole entry, looked up): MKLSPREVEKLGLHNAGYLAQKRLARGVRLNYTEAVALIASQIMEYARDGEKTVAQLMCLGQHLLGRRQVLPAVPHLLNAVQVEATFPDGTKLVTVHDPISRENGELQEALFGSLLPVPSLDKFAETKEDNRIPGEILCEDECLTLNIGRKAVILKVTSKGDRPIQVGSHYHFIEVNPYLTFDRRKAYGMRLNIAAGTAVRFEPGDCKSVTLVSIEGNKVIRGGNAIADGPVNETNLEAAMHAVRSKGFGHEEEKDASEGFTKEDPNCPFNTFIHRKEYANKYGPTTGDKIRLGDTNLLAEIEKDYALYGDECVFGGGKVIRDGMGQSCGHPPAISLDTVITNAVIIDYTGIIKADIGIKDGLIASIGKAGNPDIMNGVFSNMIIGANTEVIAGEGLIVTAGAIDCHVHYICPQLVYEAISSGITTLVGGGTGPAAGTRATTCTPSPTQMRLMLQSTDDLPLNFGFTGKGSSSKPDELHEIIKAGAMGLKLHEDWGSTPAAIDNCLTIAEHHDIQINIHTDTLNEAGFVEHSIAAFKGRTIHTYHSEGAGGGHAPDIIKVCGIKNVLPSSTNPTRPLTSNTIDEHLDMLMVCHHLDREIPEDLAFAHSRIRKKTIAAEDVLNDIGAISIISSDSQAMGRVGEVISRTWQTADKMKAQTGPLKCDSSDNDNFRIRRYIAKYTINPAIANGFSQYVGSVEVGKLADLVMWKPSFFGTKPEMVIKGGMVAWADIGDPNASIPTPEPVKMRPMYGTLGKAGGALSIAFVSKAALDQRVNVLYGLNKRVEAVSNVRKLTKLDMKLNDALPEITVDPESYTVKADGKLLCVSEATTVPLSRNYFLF

Compound	IC50 (Jack bean urease) [µM]	melting point [°C]	IC50 urease inhibition (Jack bean urease; incubation 37 °C 30 min, absorbance 625 nm, triplicate, positive control thiourea)	Potency relative to standard thiourea (Jack bean urease; ratio of urease IC50 values) [times]	IC50 (Jack bean urease; incubation 37 °C 30 min, absorbance 625 nm, triplicate, positive control thiourea, read-out: IC50 urease inhibition) [µM]
O=S(=O)(Nc1ncccn1)c1ccc(N=Cc2ccccc2)cc1 [3a, 4-(Benzylideneamino)-N-(pyrimidin-2-yl)benzenesulfonamide]	2.32 ± 0.54	269 to 271			
O=S(=O)(Nc1ncccn1)c1ccc(N=Cc2ccccc2O)cc1 [3b, 4-(2-Hydroxybenzylideneamino)-N-(pyrimidin-2-yl)benzenesulfonamide]	3.29 ± 2				
O=S(=O)(Nc1ncccn1)c1ccc(N=Cc2cc(Br)ccc2O)cc1 [3c, 4-(5-Bromo-2-hydroxybenzylideneamino)-N-(pyrimidin-2-yl)benzenesulfonamide]			inactivation of the compound		
COc1ccc(C=Nc2ccc(S(=O)(=O)Nc3ncccn3)cc2)c(O)c1 [3d, 4-(2-Hydroxy-4-methoxybenzylideneamino)-N-(pyrimidin-2-yl)benzenesulfonamide]		266 to 267			
O=[N+]([O-])c1ccc(C=Nc2ccc(S(=O)(=O)Nc3ncccn3)cc2)cc1 [3e, 4-(4-Nitrobenzylideneamino)-N-(pyrimidin-2-yl)benzenesulfonamide]	4.15 ± 0.77	274 to 276			
CN(C)c1ccc(C=Nc2ccc(S(=O)(=O)Nc3ncccn3)cc2)cc1 [3f, 4-(4-(Dimethylamino)benzylideneamino)-N-(pyrimidin-2-yl)benzenesulfonamide]	13.14 ± 0.02	275 to 277			
O=S(=O)(Nc1ncccn1)c1ccc(N=Cc2ccc(F)cc2)cc1 [3g, 4-(4-Fluorobenzylideneamino)-N-(pyrimidin-2-yl)benzenesulfonamide]	10.1 ± 0.45	283 to 285			
COc1ccc(C=Nc2ccc(S(=O)(=O)Nc3ncccn3)cc2)cc1 [3h, 4-(4-Methoxybenzylideneamino)-N-(pyrimidin-2-yl)benzenesulfonamide]	45.6 ± 0.56	287 to 289			
O=S(=O)(Nc1ncccn1)c1ccc(N=Cc2ccc(Cl)cc2O)cc1 [3i, 4-(4-Chloro-2-hydroxybenzylideneamino)-N-(pyrimidin-2-yl)benzenesulfonamide]	25.56 ± 0.22	285 to 287			
O=S(=O)(Nc1ncccn1)c1ccc(N=Cc2ccc(F)cc2O)cc1 [3j, 4-(4-Fluoro-2-hydroxybenzylideneamino)-N-(pyrimidin-2-yl)benzenesulfonamide]	19 ± 1.23	279 to 281			
O=S(=O)(Nc1ncccn1)c1ccc(N=Cc2ccc(O)cc2O)cc1 [3k, 4-(2,4-Dihydroxybenzylideneamino)-N-(pyrimidin-2-yl)benzenesulfonamide]	12.1 ± 2.43	280 to 282			
O=S(=O)(Nc1ncccn1)c1ccc(N=Cc2ccc(F)cc2Br)cc1 [3l, 4-(2-Bromo-4-fluorobenzylideneamino)-N-(pyrimidin-2-yl)benzenesulfonamide]	2.21 ± 0.45	285 to 287		10	
O=S(=O)(Nc1ncccn1)c1ccc(N=Cc2ccc(F)cc2Cl)cc1 [3m, 4-(2-Chloro-4-fluorobenzylideneamino)-N-(pyrimidin-2-yl)benzenesulfonamide]	15.7 ± 2.45	277 to 279			
O=S(=O)(Nc1ncccn1)c1ccc(N=Cc2ccc(Br)cc2F)cc1 [3n, 4-(4-Bromo-2-fluorobenzylideneamino)-N-(pyrimidin-2-yl)benzenesulfonamide]	18.2 ± 1.78	291 to 293			
O=S(=O)(Nc1ncccn1)c1ccc(N=Cc2ccc(Cl)cc2Br)cc1 [3o, 4-(2-Bromo-4-chlorobenzylideneamino)-N-(pyrimidin-2-yl)benzenesulfonamide]	5.04 ± 0.4	277 to 279			
O=S(=O)(Nc1ncccn1)c1ccc(N=Cc2ccc(Cl)cc2F)cc1 [3p, 4-(4-Chloro-2-fluorobenzylideneamino)-N-(pyrimidin-2-yl)benzenesulfonamide]	17.07 ± 0.02	275 to 277			
O=S(=O)(Nc1ncccn1)c1ccc(N=Cc2ccc(Cl)cc2Cl)cc1 [3q, 4-(2,4-Dichlorobenzylideneamino)-N-(pyrimidin-2-yl)benzenesulfonamide]	4.05 ± 1.1	291 to 293			
O=S(=O)(Nc1ncccn1)c1ccc(N=Cc2ccc(F)cc2F)cc1 [3r, 4-(2,4-Difluorobenzylideneamino)-N-(pyrimidin-2-yl)benzenesulfonamide]	13.1 ± 2.55	279 to 281			
O=S(=O)(Nc1ncccn1)c1ccc(N=Cc2ccc(Br)cc2Br)cc1 [3s, 4-(2,4-Dibromobenzylideneamino)-N-(pyrimidin-2-yl)benzenesulfonamide]	6.09 ± 0.45	273 to 275			
O=S(=O)(Nc1ncccn1)c1ccc(N=Cc2ccc(O)cc2)cc1 [3t, 4-(4-Hydroxybenzylideneamino)-N-(pyrimidin-2-yl)benzenesulfonamide]	8.9 ± 2.45	271 to 273			
Cc1ccc(C=Nc2ccc(S(=O)(=O)Nc3ncccn3)cc2)c(O)c1 [3u, 4-(2-Hydroxy-4-methylbenzylideneamino)-N-(pyrimidin-2-yl)benzenesulfonamide]		279 to 281			
NC(N)=S [thiourea, reference compound]					20 ± 2.06
